Source: patent US11390617B2, “Methods of treating non-Hodgkin lymphoma using 2-(2,6-dioxopiperidin-3-yl)-4-((2-fluoro-4-((3-morpholinoazetidin-1-yl)methyl)benzyl)amino)isoindoline-1,3-dione” (Celgene Corporation, priority 2019, dated 2022)

What was measured:
Test in all cases: NHL cell line viability/apoptosis 384-well flow cytometry assay
Format in all cases: cell-based
[1] = system: SU-DHL-16; conditions: SU-DHL-16 (DLBCL), 120 hours
Protocol: (§1) The following exemplary anti-proliferative assay uses exemplary non-Hodgkin lymphoma (NIL) cell lines (including diffuse large B-cell lymphoma (DLBCL), follicular lymphoma (FL), and mantle cell lymphoma (MCL)) (Table 5). The in vitro growth inhibitory activity of Compound 1 described herein was evaluated using a 384-well flow cytometry assay.
(§2) The cell lines in Table 5 were plated in 384-well flat bottom plates and assessed with increasing concentrations of compound ranging from 0.00015 to 10 μM or dimethyl sulfoxide (DMSO) control. The final concentration of DMSO was 0.1% (v/v). Following the addition of Compound 1 or DMSO and incubation for 120 hours, cell number and cell death were analyzed by flow cytometry (Attune®, Thermo Fisher) using Annexin V and the live-cell impermeant DNA dye, DRAQ7. Phosphatidylserine translocates from the inner layer to the outer layer of the cell membrane early in apoptosis and Annexin V binds to the exposed phosphatidylserine found on the surface of an apoptotic cell. The vital dye DRAQ7 is excluded by intact live cells and only stains cells that have died as a result of apoptosis or necrosis.
(§3) Flow cytometry data analysis was then performed using the Flow Jo_v10 software to determine the number of viable cells (Annexin V and DRAQ7 double negative staining cells) and percentage of apoptotic cells (Annexin V positive cells) for each condition. The live cell count for every concentration was normalized to the DMSO control (considered as 100%) to calculate the percentage of viable cells remaining after treatment and graphed using GraphPad Prism 7.03. The IC50 (50% inhibitory concentration) and Emax (maximum efficacy achieved) values were then calculated by performing nonlinear regression curve fitting using log(inhibitor) vs. normalized response—variable slope analysis on GraphPad Prism 7.03. Area under the curve (AUC) was calculated by performing area under curve analysis on GraphPad Prism 7.03. Similarly, for apoptosis analysis, the percentage of apoptosis combining both “early” (Annexin V positive and DRAQ7 negative) and “late” apoptosis (Annexin V and DRAQ7 positive) cell gates relative to DMSO was graphed using GraphPad Prism 7.03. The AUC, EC50 (concentration of Compound 1 that produces half-maximal apoptosis response) and Ymax (maximal percentage of apoptosis achieved) values from apoptosis curves were calculated by performing area under curve analysis and nonlinear regression curve fitting using log(agonist) vs. normalized response—Variable slope analysis on GraphPad Prism 7.03.
(§4) In Table 6, dose-response proliferation curves for the panel of NHL cell lines and non-linear curve-fit regression were used to determine IC50, AUC, and Emax for % viable cells (Emax for viability varies between 100 at low doses and 0 at high doses, which corresponds to inhibition of all viable cells), and dose-response apoptosis curves were used to determine the EC50, AUC, and Ymax for % apoptosis (Ymax for apoptosis varies from 0 at low doses and 100 at higher doses which corresponds to death of all cells). Tumor cells were exposed to serial dilutions (0.00015 to 10 μM) of Compound 1 or dimethyl sulfoxide (DMSO) control for 5 days. Viability and apoptosis for all cell lines was determined by Annexin V/[…] flow cytometry.

[2] = system: STR428; conditions: STR428 (DLBCL), 120 hours
Protocol: as §1, §2, §3, §4

[3] = system: CARNAVAL; conditions: CARNAVAL (DLBCL), 120 hours
Protocol: as §1, §2, §3, §4

[4] = system: Mino; conditions: Mino (MCL), 120 hours
Protocol: as §1, §2, §3, §4

[5] = system: U-2946; conditions: U-2946 (DLBCL), 120 hours
Protocol: as §1, §2, §3, §4

[6] = system: KARPAS-1106P; conditions: KARPAS-1106P (DLBCL), 120 hours
Protocol: as §1, §2, §3, §4

[7] = system: Farage; conditions: Farage (DLBCL), 120 hours
Protocol: as §1, §2, §3, §4

[8] = system: WSU-DLCL2; conditions: WSU-DLCL2 (DLBCL), 120 hours
Protocol: as §1, §2, §3, §4

[9] = system: SU-DHL-2; conditions: SU-DHL-2 (DLBCL), 120 hours
Protocol: as §1, §2, §3, §4

[10] = system: SU-DHL-10; conditions: SU-DHL-10 (DLBCL), 120 hours
Protocol: as §1, §2, §3, §4

[11] = system: OCI-LY7; conditions: OCI-LY7 (DLBCL), 120 hours
Protocol: as §1, §2, §3, §4

[12] = Homo sapiens, read-out: IC50 (% Viable Cells)
[13] = read-out: IC50 (% Viable Cells)

O=C1CC[C@H](N2C(=O)c3cccc(NCc4ccc(CN5CC(N6CCOCC6)C5)cc4F)c3C2=O)C(=O)N1 [Compound 1, (S)-2-(2,6-dioxopiperidin-3-yl)-4-((2-fluoro-4-((3-morpholinoazetidin-1-yl)methyl)benzyl)amino)isoindoline-1,3-dione]
EC50 ([1]; Homo sapiens): 662 nM | IC50 [1, 12]: 154 nM | AUC (% Viable Cells) [1]: 149.7 | AUC (Apoptosis) [1]: 492.6 | Emax (% Viable Cells) [1]: 7.137% | Ymax (Apoptosis) [1]: 60.79% | AUC (% Viable Cells) [2]: 43.48 | AUC (Apoptosis) [2]: 905.9 | EC50 [2]: 102 nM | Emax (% Viable Cells) [2]: 1.227% | Ymax (Apoptosis) [2]: 95.17% | IC50 [2, 13]: 94.7 nM | AUC (% Viable Cells) [3]: 110.6 | AUC (Apoptosis) [3]: 708.7 | EC50 [3]: 152 nM | Emax (% Viable Cells) [3]: 7.134% | Ymax (Apoptosis) [3]: 77.84% | IC50 [3, 13]: 9.12 nM | EC50 ([4]; Homo sapiens): 2.05 nM | IC50 [4, 12]: 5.78 nM | AUC (% Viable Cells) [4]: 62.67 | AUC (Apoptosis) [4]: 968.2 | Emax (% Viable Cells) [4]: 5.638% | Ymax (Apoptosis) [4]: 97.04% | AUC (% Viable Cells) [5]: 45.47 | AUC (Apoptosis) [5]: 762.6 | EC50 [5]: 192 nM | Emax (% Viable Cells) [5]: 0.4821% | Ymax (Apoptosis) [5]: 93.34% | IC50 [5, 13]: 4.6 nM | EC50 ([6]; Homo sapiens): 91.8 nM | IC50 [6, 12]: 17.5 nM | AUC (% Viable Cells) [6]: 22.22 | AUC (Apoptosis) [6]: 885.2 | Emax (% Viable Cells) [6]: 0.1698% | Ymax (Apoptosis) [6]: 97.08% | AUC (% Viable Cells) [7]: 10.16 | AUC (Apoptosis) [7]: 728.7 | EC50 [7]: 30.2 nM | Emax (% Viable Cells) [7]: 0.7936% | Ymax (Apoptosis) [7]: 84.17% | IC50 [7, 13]: 2.38 nM | EC50 ([8]; Homo sapiens, WSUDLCL2): 84.7 nM | IC50 ([8]; Homo sapiens, WSUDLCL2, read-out: IC50 (% Viable Cells)): 16.9 nM | AUC (% Viable Cells) [8]: 36.7 | AUC (Apoptosis) [8]: 858.9 | Emax (% Viable Cells) [8]: 1.387% | Ymax (Apoptosis) [8]: 92.1% | EC50 ([9]; Homo sapiens): 6.24 nM | IC50 [9, 12]: 1.26 nM | AUC (% Viable Cells) [9]: 5.586 | AUC (Apoptosis) [9]: 928.4 | Emax (% Viable Cells) [9]: 0.2145% | Ymax (Apoptosis) [9]: 95.98% | EC50 ([10]; Homo sapiens, SU-DHL10): 39.4 nM | IC50 ([10]; Homo sapiens, SU-DHL10, read-out: IC50 (% Viable Cells)): 6.1 nM | AUC (% Viable Cells) [10]: 10.36 | AUC (Apoptosis) [10]: 903 | Emax (% Viable Cells) [10]: 0.6716% | Ymax (Apoptosis) [10]: 92.27% | EC50 ([11]; Homo sapiens): 16.3 nM | IC50 [11, 12]: 6.48 nM | AUC (% Viable Cells) [11]: 48.18 | AUC (Apoptosis) [11]: 682.7 | Emax (% Viable Cells) [11]: 4.191% | Ymax (Apoptosis) [11]: 71.18%
